From US11993575B1, “Ethyl [4,4-bis(4-bromophenyl)-2,5-dioxoimidazolidin-1-yl]acetate as an antimicrobial compound” (KING FAISAL UNIVERSITY, priority 2023, dated 2024)

How the values were obtained:
Type in all cases: cell-based
Conditions in all cases: after 10, 20, 40 and 60 minutes at all dilutions 1:100, 1:200, 1:400, 1:800
Staphylococcus aureus = test: Antimicrobial testing by agar dilution, Staphylococcus aureus
Experimental: (§1) The antimicrobial properties of the ethyl [4,4-bis(4-bromophenyl)-2,5-dioxoimidazolidin-1-yl]acetate was studied by the method of agar dilution. Test solutions of each compound was prepared in concentration of 1% using dimethylformamide as a solvent then they are diluted in physiological solution to obtain the final experimental dilutions 1:100, 1:200, 1:400, 1:800. The effect of these substances are compared with furacillin in a controllable study. The testing microbes used were gram positive bacteria Staphylococcus aureus, gram negative bacteria Escherichia coli, Pseudomonas aeruginosa and Candida albicans fungi were taken. The experiments used for this survey were meat-pentonlu agar (EPA) for cultivation of bacteria and Saburo environment for fungi. Each experiment used 1 ml of test solution on each plate 500 min. Add 2 drops of emulsified with microbes feel. All experimental samples were taken from the agar after 10, 20, 40, 60 minutes in the environment on the basis of Patrk planted. Bacteria were cultivated at a temperature of 37° C. for 1 day and the mushroom was kept in a thermostat for […] at a temperature of 28° C. Then the results were checked.

Escherichia coli = test: Antimicrobial testing by agar dilution, Escherichia coli
Experimental: as §1

Pseudomonas aeruginosa = test: Antimicrobial testing by agar dilution, Pseudomonas aeruginosa
Experimental: as §1

Candida albicans = test: Antimicrobial testing by agar dilution, Candida albicans
Experimental: as §1

Measured: inhibition activity

CCOC(=O)CN1C(=O)NC(c2ccc(Br)cc2)(c2ccc(Br)cc2)C1=O [ethyl [4,4-bis(4-bromophenyl)-2,5-dioxoimidazolidin-1-yl]acetate]
higher inhibition activity: all assays above
